Target: Granzyme B (human lymphocytes) (Homo sapiens (Human), UniProt P10144)
Assay: human Granzyme B biochemical assay
Conditions: Granzyme B (human lymphocytes) 5 nM, substrate Ac-IETD-AFC 200 μM, Cpd incubation with enzyme 30 mins, 22° C., read time 60 mins; read-out: IC50
How it was run: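 Fluorogenic Ac-IETD-AFC cleavage (Ex 400/Em 505 nm) read after 60 min at 22 °C, following 30 min, 22 °C enzyme–compound pre-incubation. Working stocks: enzyme 10 nM in 0.1% BSA buffer, substrate 800 µM, compound 8 points, 3.16-fold from 40 µM. Controls set 0% (DMSO) and 100% (standard inhibitor) inhibition; IC50 fitted.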

Sequence of Granzyme B (human lymphocytes) (P10144 21-247): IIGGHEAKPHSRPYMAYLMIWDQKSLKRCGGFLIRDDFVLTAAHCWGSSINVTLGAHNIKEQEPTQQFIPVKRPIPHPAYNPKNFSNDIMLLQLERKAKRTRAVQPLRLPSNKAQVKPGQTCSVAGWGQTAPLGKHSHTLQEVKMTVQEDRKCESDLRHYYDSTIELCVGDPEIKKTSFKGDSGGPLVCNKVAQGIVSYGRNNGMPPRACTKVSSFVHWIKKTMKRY

Row | SMILES | IC50
1 | O=C(Cc1csc2ccccc12)N[C@@H](CO)C(=O)N[C@H]1CCc2cccc3c2N(C1=O)[C@H](C(=O)NCc1c[nH]nn1)C3 [Compound C007, (2S,5S)-5-[(S)-2-(2-Benzo[b]thiophen-3-yl-acetylamino)-3-hydroxy-propionylamino]-4-oxo-1,2,4,5,6,7-hexahydro-azepino[3,2,1-hi]indole-2-carboxylic acid (1H-[1,2,3]triazol-4-ylmethyl)-amide] | > 5 µM
2 | CC[C@H](C)[C@H](NC(=O)COCCF)C(=O)N[C@H]1CCc2cccc3c2N(C1=O)[C@H](C(=O)NCc1cccc(Cl)c1)C3 [Compound C131, (2S,5S)-5-{(2S,3S)-2-[2-(2-Fluoro-ethoxy)-acetylamino]-3-methyl-pentanoylamino}-4-oxo-1,2,4,5,6,7-hexahydro-azepino[3,2,1-hi]indole-2-carboxylic acid 3-chloro-benzylamide] | > 5 µM
3 | O=C(Cc1ccccc1)N[C@@H](CO)C(=O)N[C@H]1CCc2cccc3c2N(C1=O)[C@H](C(=O)NCc1c[nH]nn1)C3 [Compound C018, (2S,5S)-5-((S)-3-Hydroxy-2-phenylacetylamino-propionylamino)-4-oxo-1,2,4,5,6,7-hexahydro-azepino[3,2,1-hi]indole-2-carboxylic acid (1H-[1,2,3]triazol-4-ylmethyl)-amide] | > 5 µM
4 | CC(=O)N[C@H](C(=O)N[C@H]1CCc2cccc3c2N(C1=O)[C@H](C(=O)NCC(=O)O)C3)C(C)C [Compound C085, {[(2S,5S)-5-((S)-2-Acetylamino-3-methyl-butyrylamino)-4-oxo-1,2,4,5,6,7-hexahydro-azepino[3,2,1-hi]indole-2-carbonyl]-amino}-acetic acid] | 1 to 5 µM
5 | CC(=O)N[C@H](C(=O)N[C@H]1CCc2cccc3c2N(C1=O)[C@H](C(=O)N[C@@H](CCC(=O)O)C(=O)O)C3)C(C)C [Compound C094, (S)-2-{[(2S,5S)-5-((S)-2-Acetylamino-3-methyl-butyrylamino)-4-oxo-1,2,4,5,6,7-hexahydro-azepino[3,2,1-hi]indole-2-carbonyl]-amino}-pentanedioic acid] | > 5 µM
6 | CC[C@H](C)[C@H](NC(=O)COCCF)C(=O)N[C@H]1CCc2cccc3c2N(C1=O)[C@H](C(=O)NCc1ccco1)C3 [Compound C105, (2S,5S)-5-{(2S,3S)-2-[2-(2-Fluoro-ethoxy)-acetylamino]-3-methyl-pentanoylamino}-4-oxo-1,2,4,5,6,7-hexahydro-azepino[3,2,1-hi]indole-2-carboxylic acid (furan-2-ylmethyl)-amide] | > 5 µM
7 | CC(=O)N[C@@H](Cc1ccc(O)cc1)C(=O)N[C@H]1CCc2cccc3c2N(C1=O)[C@H](C(=O)NCc1c[nH]nn1)C3 [Compound C032, (2S,5S)-5-[(S)-2-Acetylamino-3-(4-hydroxy-phenyl)-propionylamino]-4-oxo-1,2,4,5,6,7-hexahydro-azepino[3,2,1-hi]indole-2-carboxylic acid(1H-[1,2,3]triazol-4-ylmethyl)amide] | 1 to 5 µM
8 | CC[C@H](C)[C@H](NC(=O)COCCF)C(=O)N[C@H]1CCc2cccc3c2N(C1=O)[C@H](C(=O)NCc1ncn[nH]1)C3 [Compound C163, (2S,5S)-5-{(2S,3S)-2-[2-(2-Fluoro-ethoxy)-acetylamino]-3-methyl-pentanoylamino}-4-oxo-1,2,4,5,6,7-hexahydro-azepino[3,2,1-hi]indole-2-carboxylic acid (2H-[1,2,4]triazol-3-ylmethyl)-amide] | > 5 µM
9 | CCC(CC)[C@H](NC(C)=O)C(=O)N[C@H]1CCc2cccc3c2N(C1=O)[C@H](C(=O)NCc1c[nH]nn1)C3 [Compound C074, (2S,5S)-5-((S)-2-Acetylamino-3-ethyl-pentanoylamino)-4-oxo-1,2,4,5,6,7-hexahydro-azepino[3,2,1-hi]indole-2-carboxylic acid (1H-[1,2,3]triazol-4-ylmethyl)-amide] | 0.001 to 0.3 µM
10 | O=C(Cc1csc2ccccc12)N[C@@H](Cc1ccc(O)cc1)C(=O)N[C@H]1CCc2cccc3c2N(C1=O)[C@H](C(=O)NCc1c[nH]nn1)C3 [Compound C010, (2S,5S)-5-[(S)-2-(2-Benzo[b]thiophen-3-yl-acetylamino)-3-(4-hydroxy-phenyl)-propionylamino]-4-oxo-1,2,4,5,6,7-hexahydro-azepino[3,2,1-hi]indole-2-carboxylic acid (1H-[1,2,3]triazol-4-ylmethyl)-amide] | > 5 µM
11 | C[C@H](NC(=O)c1ccccc1)C(=O)N[C@H]1CCc2cccc3c2N(C1=O)[C@H](C(=O)NCc1c[nH]nn1)C3 [Compound C035, (2S,5S)-5-((S)-2-Benzoylamino-propionylamino)-4-oxo-1,2,4,5,6,7-hexahydro-azepino[3,2,1-hi]indole-2-carboxylic acid (1H-[1,2,3]triazol-4-ylmethyl)-amide] | > 5 µM
12 | CC(=O)N[C@@H](Cc1ccccc1)C(=O)N[C@H]1CCc2cccc3c2N(C1=O)[C@H](C(=O)NCc1c[nH]nn1)C3 [Compound C026, (2S,5S)-5-((S)-2-Acetylamino-3-phenyl-propionylamino)-4-oxo-1,2,4,5,6,7-hexahydro-azepino[3,2,1-hi]indole-2-carboxylic acid (1H-[1,2,3]triazol-4-ylmethyl)-amide] | 1 to 5 µM
13 | CC(=O)N[C@H](C(=O)N[C@H]1CCc2cccc3c2N(C1=O)[C@H](C(=O)N[C@@H](CC(=O)O)C(=O)O)C3)C(C)C [Compound C092, (S)-2-{[(2S,5S)-5-((S)-2-Acetylamino-3-methyl-butyrylamino)-4-oxo-1,2,4,5,6,7-hexahydro-azepino[3,2,1-hi]indole-2-carbonyl]-amino}-succinic acid] | > 5 µM
14 | CC[C@H](C)[C@H](NC(=O)c1ccncc1)C(=O)N[C@H]1CCc2cccc3c2N(C1=O)[C@H](C(=O)NCc1c[nH]nn1)C3 [Compound C068, (2S,5S)-5-{(2S,3S)-3-Methyl-2-[(pyridine-4-carbonyl)-amino]-pentanoylamino}-4-oxo-1,2,4,5,6,7-hexahydro-azepino[3,2,1-hi]indole-2-carboxylicacid (1H-[1,2,3]triazol-4-ylmethyl)-amide] | 0.001 to 0.3 µM
15 | CC(=O)N[C@@H](Cc1ccc(F)cc1)C(=O)N[C@H]1CCc2cccc3c2N(C1=O)[C@H](C(=O)NCc1c[nH]nn1)C3 [Compound C033, (2S,5S)-5-[(S)-2-Acetylamino-3-(4-fluoro-phenyl)-propionylamino]-4-oxo-1,2,4,5,6,7-hexahydro-azepino[3,2,1-hi]indole-2-carboxylic acid (1H-[1,2,3]triazol-4-ylmethyl)-amide] | 1 to 5 µM
16 | CC[C@H](C)[C@H](NC(=O)c1cccc(OC)c1)C(=O)N[C@H]1CCc2cccc3c2N(C1=O)[C@H](C(=O)NCc1c[nH]nn1)C3 [Compound C061, (2S,5S)-5-[(2S,3S)-2-(3-Methoxy-benzoylamino)-3-methyl-pentanoylamino]-4-oxo-1,2,4,5,6,7-hexahydro-azepino[3,2,1-hi]indole-2-carboxylic acid(1H-[1,2,3]triazol-4-ylmethyl)-amide] | 0.001 to 0.3 µM
17 | O=C(Cc1csc2ccccc12)N[C@@H](Cc1ccccc1)C(=O)N[C@H]1CCc2cccc3c2N(C1=O)[C@H](C(=O)NCc1c[nH]nn1)C3 [Compound C004, (2S,5S)-5-[(S)-2-(2-Benzo[b]thiophen-3-yl-acetylamino)-3-phenyl-propionylamino]-4-oxo-1,2,4,5,6,7-hexahydro-azepino[3,2,1-hi]indole-2-carboxylic acid (1H-[1,2,3]triazol-4-ylmethyl)-amide] | > 5 µM
